Key:
[1] = test system: blood brain barrier (rat brain); experiment: Evans Blue accumulation in rat brain after alternating electric fields; format: in vivo, rats
Text: A set of in vivo experiments on rats was also run to quantify the increase in vessel permeability caused by exposure to the alternating electric fields. These experiments used Evans Blue (EB) dye, which is an azo dye that has a very high affinity for serum albumin (molecule size ˜69 kDa). Because of its large molecule size, serum albumin will ordinarily not be able to get past the BBB.
This was accomplished by shaving each rat's head, positioning a first pair of capacitively coupled electrodes on the top and bottom of the rat's head, and positioning a second pair of capacitively coupled electrodes on the left and right sides of the rat's head. A 100 kHz AC voltage was then applied between the top and bottom electrodes for 1 second, followed by a 100 kHz AC voltage applied between the right and left electrodes for 1 second, in a repeating sequence.
Under the conditions indicated in Table 1 and for the times indicated on Table 1, EB was injected intravenously into the tail vein under anesthesia (Once injected, EB immediately binds to Albumin), and the EB was allowed to circulate for 2 hours in all cases. The following steps were then performed: (a) intracardiac perfusion with saline; (b) brains are sliced in four pieces with a brain slicer; (c) pieces were photographed to localize staining and weighted; (d) EB extraction after tissue homogenization with TCA 50% (1:3) and centrifuge and (e) EB quantification at 610 nm. Results are given as μg EB per g tissue.
During the experiment, two animals from group 2 and one animal from group 4 were excluded (disrupted treatment, failure to inject EB into the tail vein). There were no differences between the animals treated with alternating electric fields (groups 1 and 2) and therefore these animals were grouped together. Similarly, there were no differences between sham heat and control animals (groups 3 and 4) and therefore these animals were grouped together.
EB accumulation in these four specific sections was then measured. In addition, a computer simulation was performed to determine the field strength in each of these four sections. […]

[2] = test system: blood brain barrier (rat brain); experiment: DCE-MRI contrast agent accumulation in rat brain; format: in vivo, rats
Protocol: Yet another set of in vivo experiments was performed using Dynamic Contrast Enhanced MRI (DCE-MRI) with intravenous injection of Gadolinium contrast agent (Gd-DTPA, Magnetol, MW 547). In these experiments, test rats were treated with 100 kHz alternating electric fields for 72 h, and control rats were not treated with alternating electric fields for the same period of time. After this 72 h period, the alternating electric field was turned off, the rats were anesthetized, and a series of 60 T1w MRI scans (each of the scans having a duration of 28 seconds) was acquired. The gadolinium contrast agent was injected into the rat's tail vein during the 7th of these 60 scans.
The image analysis for each rat included (1) determining a baseline for each voxel by calculating the mean of the first six T1w MRI scans for each voxel (i.e., the scans prior to the injection of the gadolinium); (2) computing voxel by voxel, the percent signal change (i.e., gadolinium accumulation) over time relative to the baseline; (3) segmenting the brain into anterior, middle, and posterior segments; (4) generating for each of the three segments the mean percent signal change with respect to the baseline over all the voxels in the respective segment and then (5) averaging 4 consecutive time points (i.e. 4 scans) together. Finally, the data from all of the rats within any given group were averaged together. […]

SMILES	average EB accumulation in the rat brain, averaged over all four sections 1-4 ([1]; 100 kHz fields 72 hours vs sham heat/control, p<0.05)	EB accumulation, sections 1, 2 (frontal cerebrum) ([1]; 100 kHz fields 72 h vs sham heat/control, EB i.v., circulated 2 hours, sections where field strength was highest)	EB accumulation, more posterior sections (3, 4) ([1]; 100 kHz fields 72 h vs sham heat/control, EB i.v., circulated 2 hours, sections where field strength was lower)	contrast agent accumulation in the brain tissue (DCE-MRI percent signal change) ([2]; 100 kHz fields 72 h (n=6) vs control rats (n=3), most pronounced in posterior brain)	contrast agent accumulation in the brain tissue (DCE-MRI percent signal change) ([2]; 100 kHz fields 72 hours followed by 96 hours without fields (n=7) vs control+96h (n=3))
Cc1cc(-c2ccc(/N=N/c3ccc4c(S(=O)(=O)O)cc(S(=O)(=O)O)c(N)c4c3O)c(C)c2)ccc1/N=N/c1ccc2c(S(=O)(=O)O)cc(S(=O)(=O)O)c(N)c2c1O [EB, Evans Blue]	higher accumulation	statistically significant increase	smaller increase (that was not statistically significant)	–	–
O=C([O-])CN(CCN(CC(=O)[O-])CC(=O)O)CCN(CC(=O)[O-])CC(=O)O.[Gd+3] [contrast agent, Gd-DTPA]	–	–	–	significantly higher	not significantly different
